Results as given in patent US9920339B2, “Methods, reagents and cells for biosynthesizing compounds” (INVISTA North America S.á r.l., priority 2014, dated 2018).

Columns and labels:
[1] = test system: Mycobacterium massiliense carboxylate reductase (SEQ ID NO: 6), enhanced by the gene product of sfp; assay: carboxylate reductase enzyme activity assay, NADPH consumption at 340 nm; type: biochemical; conditions: SEQ ID NO 6 with sfp; 2 mM substrate, 10 mM MgCl2, 1 mM ATP, 1 mM NADPH, pH 7.5, room temperature, 20 min; absorbance at 340 nm
Experimental: A nucleotide sequence encoding a His-tag was added to the genes from Mycobacterium marinum, Mycobacterium smegmatis, Segniliparus rugosus, Mycobacterium massiliense, and Segniliparus rotundus that encode the carboxylate reductases of SEQ ID NOs: 2-4, 6 and 7, respectively (GenBank Accession Nos. ACC40567.1, ABK71854.1, EFV11917.1, EIV11143.1, and ADG98140.1, respectively) (see FIG. 10) such that N-terminal HIS tagged carboxylate reductases could be produced. Each of the modified genes was cloned into a pET Duet expression vector alongside a sfp gene encoding a His-tagged phosphopantetheine transferase from Bacillus subtilis, both under control of the T7 promoter. Each expression vector was transformed into a BL21[DE3] E. coli host along with the expression vectors from Example 3. Each resulting recombinant E. coli strain was cultivated at 37° C. in a 250 mL shake flask culture containing 50 mL LB media and antibiotic selection pressure, with shaking at 230 rpm. Each culture was induced overnight at 37° C. using an auto-induction media. […]
(§1) Enzyme activity (i.e., 5-hydroxypentanoate to 5-hydroxypentanal) assays were performed in triplicate in a buffer composed of a final concentration of 50 mM HEPES buffer (pH=7.5), 2 mM 5-hydroxypentanal, 10 mM MgCl2, 1 mM ATP, and 1 mM NADPH. […] The consumption of NADPH was monitored by absorbance at 340 nm.

[2] = test system: Segniliparus rotundus carboxylate reductase (SEQ ID NO: 7), enhanced by the gene product of sfp; assay: as above; type: biochemical; conditions: SEQ ID NO 7 with sfp; 2 mM substrate, 10 mM MgCl2, 1 mM ATP, 1 mM NADPH, pH 7.5, room temperature, 20 min; absorbance at 340 nm
Experimental: (§2) A nucleotide sequence encoding a His-tag was added to the genes from Mycobacterium marinum, Mycobacterium smegmatis, Segniliparus rugosus, Mycobacterium massiliense, and Segniliparus rotundus that encode the carboxylate reductases of SEQ ID NOs: 2-4, 6 and 7, respectively (GenBank Accession Nos. ACC40567.1, ABK71854.1, EFV11917.1, EIV11143.1, and ADG98140.1, respectively) (see FIG. 10) such that N-terminal HIS tagged carboxylate reductases could be produced. Each of the modified genes was cloned into a pET Duet expression vector alongside a sfp gene encoding a His-tagged phosphopantetheine transferase from Bacillus subtilis, both under control of the T7 promoter. Each expression vector was transformed into a BL21[DE3] E. coli host along with the expression vectors from Example 3. Each resulting recombinant E. coli strain was cultivated at 37° C. in a 250 mL shake flask culture containing 50 mL LB media and antibiotic selection pressure, with shaking at 230 rpm. Each culture was induced overnight at 37° C. using an auto-induction media.
The pellet from each induced shake flask culture was harvested via centrifugation. Each pellet was resuspended and lysed via sonication. The cell debris was separated from the supernatant via centrifugation. […]
as §1
The N-terminal His-tagged carboxylate reductase of SEQ ID NO 7 (see Example 2 and FIG. 10) was assayed using glutarate semialdehyde as substrate. […] The consumption of NADPH was monitored by absorbance at 340 nm.
The N-terminal His-tagged carboxylate reductase of SEQ ID NO 2-4 and 7 (see Example 2 and FIG. 10) was assayed using glutarate methyl ester as substrate. […] The consumption of NADPH was monitored by absorbance at 340 nm.

[3] = biological target: T1, Mycobacterium marinum carboxylate reductase (SEQ ID NO: 2), enhanced by the gene product of sfp (Mycobacterium marinum, UniProt B2HN69); assay: as above; type: biochemical; conditions: SEQ ID NO 2 with sfp; 2 mM substrate, 10 mM MgCl2, 1 mM ATP, 1 mM NADPH, pH 7.5, room temperature, 20 min; absorbance at 340 nm
T1 construct: His-tag (N); made in house; host or cells: E. coli BL21[DE3], pET Duet
T1 sequence (B2HN69 whole entry): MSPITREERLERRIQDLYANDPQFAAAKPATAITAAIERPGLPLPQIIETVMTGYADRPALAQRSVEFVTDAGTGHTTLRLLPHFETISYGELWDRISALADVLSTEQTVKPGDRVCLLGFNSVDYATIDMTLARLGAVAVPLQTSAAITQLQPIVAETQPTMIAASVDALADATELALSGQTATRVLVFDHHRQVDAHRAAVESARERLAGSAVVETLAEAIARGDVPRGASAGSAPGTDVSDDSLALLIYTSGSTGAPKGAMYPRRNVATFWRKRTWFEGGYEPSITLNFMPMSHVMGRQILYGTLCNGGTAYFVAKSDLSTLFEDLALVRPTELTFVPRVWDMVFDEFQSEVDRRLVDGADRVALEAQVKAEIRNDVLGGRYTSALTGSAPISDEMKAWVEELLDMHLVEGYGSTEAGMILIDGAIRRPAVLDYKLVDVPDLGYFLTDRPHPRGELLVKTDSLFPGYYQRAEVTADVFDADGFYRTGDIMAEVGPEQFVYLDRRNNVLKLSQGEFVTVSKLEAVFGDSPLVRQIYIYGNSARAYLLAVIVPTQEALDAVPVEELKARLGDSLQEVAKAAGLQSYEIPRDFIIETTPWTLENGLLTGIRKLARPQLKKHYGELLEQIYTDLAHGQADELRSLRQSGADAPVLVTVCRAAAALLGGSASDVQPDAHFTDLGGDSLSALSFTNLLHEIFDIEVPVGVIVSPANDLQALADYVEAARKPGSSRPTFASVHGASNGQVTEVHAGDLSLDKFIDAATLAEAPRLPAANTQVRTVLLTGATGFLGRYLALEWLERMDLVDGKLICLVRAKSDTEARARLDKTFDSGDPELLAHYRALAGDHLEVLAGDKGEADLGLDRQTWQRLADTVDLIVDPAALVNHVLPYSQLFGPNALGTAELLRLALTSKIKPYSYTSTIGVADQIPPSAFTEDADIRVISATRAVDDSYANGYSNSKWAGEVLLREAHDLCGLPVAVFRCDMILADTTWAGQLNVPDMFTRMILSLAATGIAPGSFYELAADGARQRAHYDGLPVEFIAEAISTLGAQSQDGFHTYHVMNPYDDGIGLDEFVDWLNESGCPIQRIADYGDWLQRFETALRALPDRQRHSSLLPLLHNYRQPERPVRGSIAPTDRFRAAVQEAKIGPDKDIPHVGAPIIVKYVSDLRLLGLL
Experimental: as §2
(§3) The pellet from each induced shake flask culture was harvested via centrifugation. Each pellet was resuspended and lysed via sonication. The cell debris was separated from the supernatant via centrifugation. The carboxylate reductases and phosphopantetheine transferase were purified from the supernatant using Ni-affinity chromatography, diluted 10-fold into 50 mM HEPES buffer (pH=7.5) and concentrated via ultrafiltration.
(§4) Enzyme activity (i.e., 5-hydroxypentanoate to 5-hydroxypentanal) assays were performed in triplicate in a buffer composed of a final concentration of 50 mM HEPES buffer (pH=7.5), 2 mM 5-hydroxypentanal, 10 mM MgCl2, 1 mM ATP, and 1 mM NADPH. Each enzyme activity assay reaction was initiated by adding purified carboxylate reductase and phosphopantetheine transferase or the empty vector control to the assay buffer containing the 5-hydroxypentanoate and then incubated at room temperature for 20 min. The consumption of NADPH was monitored by absorbance at 340 nm.
(§5) The N-terminal His-tagged carboxylate reductase of SEQ ID NO 2-4 and 7 (see Example 2 and FIG. 10) was assayed using glutarate methyl ester as substrate. The enzyme activity assay was performed in triplicate in a buffer composed of a final concentration of 50 mM HEPES buffer (pH=7.5), 2 mM glutarate methyl ester, 10 mM MgCl2, 1 mM ATP and 1 mM NADPH. The enzyme activity assay reaction was initiated by adding purified carboxylate reductase and phosphopantetheine transferase or the empty vector control to the assay buffer containing the glutarate semialdehyde and then incubated at room temperature for 20 min. The consumption of NADPH was monitored by absorbance at 340 nm.

[4] = test system: Mycobacterium smegmatis carboxylate reductase (SEQ ID NO: 3), enhanced by the gene product of sfp; assay: as above; type: biochemical; conditions: SEQ ID NO 3 with sfp; 2 mM substrate, 10 mM MgCl2, 1 mM ATP, 1 mM NADPH, pH 7.5, room temperature, 20 min; absorbance at 340 nm
Experimental: as §2, §3, §4, §5

[5] = test system: Segniliparus rugosus carboxylate reductase (SEQ ID NO: 4), enhanced by the gene product of sfp; assay: as above; type: biochemical; conditions: SEQ ID NO 4 with sfp; 2 mM substrate, 10 mM MgCl2, 1 mM ATP, 1 mM NADPH, pH 7.5, room temperature, 20 min; absorbance at 340 nm
Experimental: as §2, §3, §4, §5

[6] = test system: Chromobacterium violaceum ω-transaminase (SEQ ID NO: 8); assay: ω-transaminase enzyme activity assay, amine substrate plus pyruvate to L-alanine (cell free extract); type: biochemical; conditions: forward (amine-forming) direction, inferred from the reverse assay
[7] = test system: transaminase of SEQ ID NO 10; assay: ω-transaminase enzyme activity assay in the forward direction, glutarate semialdehyde plus L-alanine to pyruvate; type: biochemical, Pseudomonas syringae; conditions: 10 mM glutarate semialdehyde, 10 mM L-alanine, 100 μM pyridoxyl 5′ phosphate, pH 7.5, 25° C., 4 h, pyruvate by RP-HPLC
Experimental: A nucleotide sequence encoding an N-terminal His-tag was added to the genes from Chromobacterium violaceum and Rhodobacter sphaeroides encoding the ω-transaminases of SEQ ID NOs: 8 and 10 respectively (see FIG. 10) such that N-terminal HIS tagged ω-transaminases could be produced. Each of the resulting modified genes was cloned into a pET21a expression vector under control of the T7 promoter and each expression vector was transformed into a BL21[DE3] E. coli host. The resulting recombinant E. coli strains were cultivated at 37° C. in a 250 mL shake flask culture containing 50 mL LB media and antibiotic selection pressure, with shaking at 230 rpm. Each culture was induced overnight at 16° C. using 1 mM IPTG.
The pellet from each induced shake flask culture was harvested via centrifugation. Each pellet was resuspended and lysed via sonication. The cell debris was separated from the supernatant via centrifugation and the cell free extract was used immediately in enzyme activity assays.
Enzyme activity in the forward direction (i.e., glutarate semialdehyde to 5-aminopentanoate) was confirmed for the transaminase of SEQ ID NO 10. Enzyme activity assays were performed in a buffer composed of a final concentration of 50 mM HEPES buffer (pH=7.5), 10 mM glutarate semialdehyde, 10 mM L-alanine and 100 μM pyridoxyl 5′ phosphate. […] The formation of pyruvate was quantified via RP-HPLC.

[8] = biological target: T2, Escherichia coli pimeloyl-[acp] methyl ester methylesterase (SEQ ID NO: 1) (Escherichia coli, UniProt P13001); assay: pimeloyl-[acp] methyl ester methylesterase enzyme activity assay, glutaryl-CoA formation by LC-MS; type: biochemical; conditions: SEQ ID NO 1, 10 μM enzyme; 5 mM glutaryl-CoA methyl ester, 25 mM Tris.HCl pH 7.0, 30° C., 1 h
T2 construct: His-tag (C); made in house; host or cells: E. coli BL21[DE3], pET28b+
T2 sequence (P13001 whole entry): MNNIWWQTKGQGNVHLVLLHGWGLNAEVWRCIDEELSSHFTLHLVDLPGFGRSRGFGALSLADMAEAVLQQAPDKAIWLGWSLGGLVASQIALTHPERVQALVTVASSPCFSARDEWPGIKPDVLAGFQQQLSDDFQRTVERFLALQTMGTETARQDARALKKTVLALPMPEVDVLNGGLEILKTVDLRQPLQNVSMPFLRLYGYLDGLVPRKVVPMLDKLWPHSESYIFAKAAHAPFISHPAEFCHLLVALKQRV
Experimental: A sequence encoding an C-terminal His-tag was added to the gene from Escherichia coli encoding the pimeloyl-[acp] methyl ester methylesterase of SEQ ID NO: 1 (see FIG. 10) such that C-terminal HIS tagged pimeloyl-[acp] methyl ester methylesterase could be produced. The resulting modified gene was cloned into a pET28b+ expression vector under control of the T7 promoter and the expression vector was transformed into a BL21[DE3] E. coli host. The resulting recombinant E. coli strain was cultivated at 37° C. in a 500 mL shake flask culture containing 100 mL LB media and antibiotic selection pressure, with shaking at 230 rpm. Each culture was induced overnight at 18° C. using 0.3 mM IPTG.
The pellet from each induced shake flask culture was harvested via centrifugation. Each pellet was resuspended and lysed via sonication. The cell debris was separated from the supernatant via centrifugation. The pimeloyl-[acp] methyl ester methylesterase was purified from the supernatant using Ni-affinity chromatography, buffer exchanged and concentrated into 20 mM HEPES buffer (pH=7.5) via ultrafiltration and stored at 4° C.
Enzyme activity assays converting glutaryl-CoA methyl ester to glutaryl-CoA were performed in triplicate in a buffer composed of a final concentration of 25 mM Tris.HCl buffer (pH=7.0) and 5 [mM] glutaryl-CoA methyl ester. […] The formation of glutaryl-CoA was quantified via LC-MS.

O=C(O)CCCCO [5-hydroxypentanoate]
accepted: accepted as substrate as confirmed against the empty vector control [1] | accepted as substrate as confirmed against the empty vector control [2] | accepted as substrate as confirmed against the empty vector control [3] | accepted as substrate as confirmed against the empty vector control [4] | accepted as substrate as confirmed against the empty vector control [5]

O=CCCCC(=O)O [glutarate semialdehyde]
accepted: accepted as substrate, concluded from the reversibility of the ω-transaminase activity [6] | accepted as substrate as confirmed against the empty vector control [2] | accepted as substrate as confirmed against the empty vector control [7]

COC(=O)CCCC(=O)SCCNC(=O)CCNC(=O)C(O)C(C)(C)COP(=O)(O)OP(=O)(O)OCC1OC(n2cnc3c(N)ncnc32)C(O)C1OP(=O)(O)O (stereo not drawn) [glutaryl-CoA methyl ester]
accepted: accepted as substrate, glutaryl-CoA synthesized as reaction product as confirmed via LC-MS [8]
